Structures can show the parent of a compound that is named as a salt. Where two headings read alike, the source gives them in different places.
Experiments:
[1] = system: smooth muscle of the intestine and uterus; conditions: cited from earlier work; for Smooth muscle contraction: intestine and uterus
blood pressure = assay: Blood pressure lowering in conscious, spontaneous hypertensive rats; type: in vivo, rat; conditions: for Effect in relation to maximum effect, 10 min. after administration (blood pressure lowering) / Effect in relation to maximum effect, 30 min. after administration (blood pressure lowering): maximum effect = 100%; for Relative blood pressure lowering activity: relative to 5,6-dihydroprostacyclin = 1.0
Text: (§1) Surprising for the compounds according to the invention is the relation of their blood platelet aggregation inhibiting effect to their blood pressure lowering activity.
Relative blood pressure lowering activity in
conscious, spontaneous hypertensive rats (measurement
via in-dwelling catheter; intravenous administration
of the test compounds; the ED20 for 5,6-dihydroprosta-
cyclin under these experimental conditions is 0.005
Duration of the blood pressure lowering effect
in conscious, spontaneous hypertensive rats (intra-

[2] = system: ADP induced fall in platelet count; assay: ADP induced fall in platelet count in-vivo in narcotized rats; parameters: species or system rat; conditions: for Maximum effect % Aggregation inhibition / Relative activity on the ADP induced fall in platelet count in-vivo: narcotized rats; for Effect in relation to maximum effect, 10 min. after administration (aggregation inhibition) / Effect in relation to maximum effect, 30 min. after administration (aggregation inhibition): maximum effect = 100%; for Relative activity on the ADP induced fall in platelet count in-vivo: relative to 5,6-dihydroprostacyclin = 1.0
Method: as §1
Relative activity on the ADP induced fall
in platelet count in-vivo in narcotized rats (urethane
narcosis; intravenous administration of the test
compounds; the ED50 for 5,6-dihydroprostacyclin under
these experimental conditions is 0.0114 mg/kg):
Duration of the platelet aggregation inhibiting
effect in-vivo (measured with the model of ADP induced
fall in platelet count in narcotized rats on intra-
venous administration of the test compounds)

[3] = system: platelet aggregation versus blood pressure; assay: Index of selectivity: platelet aggregation inhibition versus blood pressure lowering (from Tables 1b and 1c); type: in vivo, rat; conditions: for Index of selectivity: in comparison to 5,6-dihydroprostacyclin, calculated from Tables 1b and 1c
Text: as §1
in comparison to 5,6-dihydroprostacyclin (calculated

human thrombocytes = assay: Inhibition of arachidonic acid induced aggregation of human thrombocytes in-vitro; type: cell-based; conditions: for Relative activity against the aggregation of human thrombocytes induced by arachidonic acid: relative to 5,6-dihydroprostacyclin = 1.0
Text: Relative activity against the aggregation
of human thrombocytes induced by arachidonic acid
in-vitro (the IC50, i.e., the concentration causing
under the experimental conditions in 50% of the cases
inhibition of the platelet aggregation for 5,6-di-

isolated rat colon = assay: Contraction inducing activity on isolated rat colon; conditions: Prostaglandin F2α = 100%
Text: (§2) Relative contraction inducing activities
(b) tests on isolated rat colon

isolated rat uterus = assay: Contraction inducing activity on isolated rat uterus; conditions: Prostaglandin F2α = 100%
Text: as §2
(a) tests on isolated rat uterus

Chemical stability = type: physicochemical
[4] = background; cited from earlier work
[5] = system: platelet aggregation versus blood pressure; conditions: background; cited from earlier work
[6] = system: ADP induced fall in platelet count; conditions: background statement; also blood pressure lowering; cited from earlier work
[7] = conscious spontaneous hypertensive rats, intravenous

CCCCC[C@H](O)/C=C/[C@H]1[C@H](O)CC(=O)[C@@H]1C/C=C\CCCC(=O)O [PGE2]
Side effects in-vivo ([1]; administered in-vivo): may induce diarrhea and abortion
Smooth muscle contraction [1]: cause contraction of the smooth muscle of the intestine and uterus

O=C(O)c1cccc(/C=C2/C[C@@H]3[C@@H](/C=C/[C@@H](O)C4CCCCC4)[C@H](O)C[C@@H]3O2)c1 [Example 3b, Sodium salt of [(5Z, 13E, 9α, 11α, 15S)-2,3,4-trinor-1,5-inter-m-phenylene-6,9-epoxy-11,15-dihydroxy-15-cyclohexyl-16,17,18,19,20-pentanor]-prosta-5,13-dienoic acid]
Maximum effect % Blood pressure lowering (blood pressure; 0.1 mg/kg intravenous): 23%
Effect in relation to maximum effect, 10 min. after administration (blood pressure lowering) (blood pressure; 0.1 mg/kg intravenous): 87.0%
Effect in relation to maximum effect, 30 min. after administration (blood pressure lowering) (blood pressure; 0.1 mg/kg intravenous): 39.1%
Relative blood pressure lowering activity (blood pressure; [7]): 0.25
Maximum effect % Aggregation inhibition ([2]; 0.1 mg/kg intravenous): 72.5%
Effect in relation to maximum effect, 10 min. after administration (aggregation inhibition) ([2]; 0.1 mg/kg intravenous): 62.6%
Effect in relation to maximum effect, 30 min. after administration (aggregation inhibition) ([2]; 0.1 mg/kg intravenous): 66.3%
Activity compared with 5,6-dihydroprostacyclin, in-vivo ([2]; in-vivo (Table 1b)): several times more active than 5,6-dihydroprostacyclin
Relative activity on the ADP induced fall in platelet count in-vivo ([2]; intravenous): 5.0
Index of selectivity [3]: 20.0
Activity compared with 5,6-dihydroprostacyclin, in-vitro (human thrombocytes; in-vitro (Table 1a)): several times more active than 5,6-dihydroprostacyclin
Relative activity against the aggregation of human thrombocytes induced by arachidonic acid (human thrombocytes; in-vitro): 18.0

CCCCC[C@H](O)/C=C/[C@@H]1[C@@H](C/C=C\CCCC(=O)O)[C@@H](O)C[C@H]1O [Prostaglandin F2α]
Relative contraction inducing activity (isolated rat colon): 100%
Side effects in-vivo [1]: may induce diarrhea and abortion
Smooth muscle contraction [1]: cause contraction of the smooth muscle of the intestine and uterus
Relative contraction inducing activity (isolated rat uterus): 100%

CCCCC[C@H](O)/C=C/[C@@H]1[C@H]2C/C(=C/c3cccc(C(=O)O)c3)O[C@H]2C[C@H]1O [Example 2b, Sodium salt of [(5Z, 13E, 9α, 11α,15S)-2,3,4-trinor-1,5-inter-m-phenylene-6,9-epoxy-11,15-dihydroxy]prosta-5,13-dienoic acid]
Relative activity against the aggregation of human thrombocytes induced by arachidonic acid (human thrombocytes; in-vitro): 1.2

CCCCCC(O)C=CC1C(O)CC2OC(CCCCC(=O)O)CC21 (stereo not shown) [5,6-Dihydroprostacyclin, 5,6-dihydroprostacyclin, reference compound]
Maximum effect % Blood pressure lowering (blood pressure; 0.0215 mg/kg intravenous): 28%
Effect in relation to maximum effect, 10 min. after administration (blood pressure lowering) (blood pressure; 0.0215 mg/kg intravenous): 7.1%
Effect in relation to maximum effect, 30 min. after administration (blood pressure lowering) (blood pressure; 0.0215 mg/kg intravenous): 0%
ED20, blood pressure lowering (blood pressure; conscious spontaneous hypertensive rats, intravenous, in-dwelling catheter): 5 µg/kg
Relative blood pressure lowering activity (blood pressure; [7]): 1.0
Relative contraction inducing activity (isolated rat colon): 23.8%
Maximum effect % Aggregation inhibition ([2]; 0.1 mg/kg intravenous): 62.4%
Effect in relation to maximum effect, 10 min. after administration (aggregation inhibition) ([2]; 0.1 mg/kg intravenous): 33.8%
Effect in relation to maximum effect, 30 min. after administration (aggregation inhibition) ([2]; 0.1 mg/kg intravenous): 0%
Duration of aggregation inhibiting and blood pressure lowering activities ([2]; also blood pressure lowering): only for a short time
ED50, ADP induced fall in platelet count ([2]; narcotized rats (urethane), intravenous): 0.0114 mg/kg
Relative activity on the ADP induced fall in platelet count in-vivo ([2]; intravenous): 1.0
Chemical stability (Chemical stability): chemically stable
Index of selectivity [3]: 1.0
Relation of platelet aggregation inhibiting to blood pressure lowering dosage ([3]; rat, in vivo): produces both these effects at the same dosage range
IC50 (human thrombocytes; human thrombocytes, induced by arachidonic acid, in-vitro, read-out: IC50, inhibition of platelet aggregation): 180 nM
Relative activity against the aggregation of human thrombocytes induced by arachidonic acid (human thrombocytes; in-vitro): 1.0
Relative contraction inducing activity (isolated rat uterus): 26.1%

CCCCC[C@](C)(O)/C=C/[C@@H]1[C@H]2C/C(=C/c3cccc(C(=O)O)c3)O[C@H]2C[C@H]1O [Example 1e)i), Sodium salt of [(5Z, 13E, 9α, 11α, 15S)-2,3,4-trinor-1,5-inter-m-phenylene-6,9-epoxy-11,15-dihydroxy-15-methyl]-prosta-5,13-dienoic acid]
Relative blood pressure lowering activity (blood pressure; [7]): 0.1
Relative contraction inducing activity (isolated rat colon): 0.002%
Maximum effect % Aggregation inhibition ([2]; 1.0 mg/kg intravenous): 72.7%
Effect in relation to maximum effect, 10 min. after administration (aggregation inhibition) ([2]; 1.0 mg/kg intravenous): 69.3%
Effect in relation to maximum effect, 30 min. after administration (aggregation inhibition) ([2]; 1.0 mg/kg intravenous): 41.3%
Relative activity on the ADP induced fall in platelet count in-vivo ([2]; intravenous): 1.3
Index of selectivity [3]: 13.0
Relative activity against the aggregation of human thrombocytes induced by arachidonic acid (human thrombocytes; in-vitro): 0.86
Relative contraction inducing activity (isolated rat uterus): 0.58%

CCCCC[C@H](O)/C=C/[C@@H]1[C@H]2C/C(=C/CCCC(=O)O)O[C@H]2C[C@H]1O [Prostacyclin, prostacyclin]
Stability [4]: not as stable as would be desirable
Relation of platelet aggregation inhibiting to blood pressure lowering dosage [5]: exhibited at generally the same dosage level
Duration of aggregation inhibiting and blood pressure lowering activities [6]: only for a short time

CCCCC[C@H](O)/C=C/[C@@H]1[C@H]2C/C(=C\c3cccc(C(=O)O)c3)O[C@H]2C[C@H]1O [Example 2a, Sodium salt of [(5E, 13E, 9α, 11α, 15S)-2,3,4-trinor-1,5-inter-m-phenylene-6,9-epoxy-11,15-dihydroxy]-prosta-5,13-dienoic acid]
Relative activity against the aggregation of human thrombocytes induced by arachidonic acid (human thrombocytes; in-vitro): 1.2

CCCCC(CC)[C@H](O)/C=C/[C@@H]1[C@H]2C/C(=C/c3cccc(C(=O)O)c3)O[C@H]2C[C@H]1O (stereo partly drawn) [Example 4b, Sodium salt of [(5Z, 13E, 9α, 11α, 15S, 16RS)-2,3,4-trinor-1,5-inter-m-phenylene-6,9-epoxy-11,15-dihydroxy-16-ethyl]-prosta-5,13-dienoic acid]
Maximum effect % Blood pressure lowering (blood pressure; 1.0 mg/kg intravenous): 22%
Effect in relation to maximum effect, 10 min. after administration (blood pressure lowering) (blood pressure; 1.0 mg/kg intravenous): 90.9%
Effect in relation to maximum effect, 30 min. after administration (blood pressure lowering) (blood pressure; 1.0 mg/kg intravenous): 68.2%
Relative blood pressure lowering activity (blood pressure; [7]): 0.012
Maximum effect % Aggregation inhibition ([2]; 1.0 mg/kg intravenous): 66.8%
Effect in relation to maximum effect, 10 min. after administration (aggregation inhibition) ([2]; 1.0 mg/kg intravenous): 45.4%
Effect in relation to maximum effect, 30 min. after administration (aggregation inhibition) ([2]; 1.0 mg/kg intravenous): 24.5%
Relative activity on the ADP induced fall in platelet count in-vivo ([2]; intravenous): 0.2
Index of selectivity [3]: 16.7
Relative activity against the aggregation of human thrombocytes induced by arachidonic acid (human thrombocytes; in-vitro): 0.31

CCCCC[C@](C)(O)/C=C/[C@@H]1[C@H]2C/C(=C\c3cccc(C(=O)O)c3)O[C@H]2C[C@H]1O [1e)ii), Sodium salt of [(5E, 13E, 9α, 11α, 15S)-2,3,4-trinor-1,5-inter-m-phenylene-6,9-epoxy-11,15-dihydroxy-15-methyl]-prosta-5,13-dienoic acid]
Relative blood pressure lowering activity (blood pressure; [7]): 0.014
Relative activity on the ADP induced fall in platelet count in-vivo ([2]; intravenous): 0.97
Index of selectivity [3]: 69.3
Relative activity against the aggregation of human thrombocytes induced by arachidonic acid (human thrombocytes; in-vitro): 0.25
